Values joined by “and” are separate entries in the source; they are usually repeats but may differ in a detail not shown here. Equal entries are not always repeated. Where two headings read alike, the source gives them in different places. Blank lines part the entries; values can stand above or below the compound they belong to.
Experiments:
[1] = target: T1, mOATP1B2 (Mus musculus, UniProt Q9JJL3); assay: Inhibition of EβG uptake in HEK293 cells overexpressing mOATP1B2; assay type: cell-based
T1 sequence (Q9JJL3 1-689): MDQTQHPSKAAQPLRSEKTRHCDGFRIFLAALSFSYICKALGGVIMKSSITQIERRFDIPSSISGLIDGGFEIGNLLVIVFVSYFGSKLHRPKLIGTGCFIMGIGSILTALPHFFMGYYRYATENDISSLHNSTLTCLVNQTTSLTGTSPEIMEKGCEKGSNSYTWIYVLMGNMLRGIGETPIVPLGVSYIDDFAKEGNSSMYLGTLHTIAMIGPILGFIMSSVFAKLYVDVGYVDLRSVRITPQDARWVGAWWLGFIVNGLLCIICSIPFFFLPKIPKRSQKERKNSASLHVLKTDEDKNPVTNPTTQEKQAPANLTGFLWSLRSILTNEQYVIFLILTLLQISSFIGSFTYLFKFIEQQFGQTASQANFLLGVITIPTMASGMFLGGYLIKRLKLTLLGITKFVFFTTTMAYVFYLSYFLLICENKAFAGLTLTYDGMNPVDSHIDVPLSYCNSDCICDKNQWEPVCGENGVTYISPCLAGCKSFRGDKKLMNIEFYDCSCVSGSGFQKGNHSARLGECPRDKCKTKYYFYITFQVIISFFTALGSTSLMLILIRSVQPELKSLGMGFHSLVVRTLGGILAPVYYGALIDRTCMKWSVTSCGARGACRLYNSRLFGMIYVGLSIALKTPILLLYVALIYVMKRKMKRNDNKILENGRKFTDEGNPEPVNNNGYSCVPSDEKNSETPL

[2] = target: T2, hOATP1B3 (Homo sapiens, UniProt Q9NPD5); assay: Inhibition of EβG uptake in HEK293 cells overexpressing hOATP1B3; settings: HEK293 hOATP1B3; inhibitor 10 μM, 15-min pre-incubation
T2 sequence (Q9NPD5 1-702): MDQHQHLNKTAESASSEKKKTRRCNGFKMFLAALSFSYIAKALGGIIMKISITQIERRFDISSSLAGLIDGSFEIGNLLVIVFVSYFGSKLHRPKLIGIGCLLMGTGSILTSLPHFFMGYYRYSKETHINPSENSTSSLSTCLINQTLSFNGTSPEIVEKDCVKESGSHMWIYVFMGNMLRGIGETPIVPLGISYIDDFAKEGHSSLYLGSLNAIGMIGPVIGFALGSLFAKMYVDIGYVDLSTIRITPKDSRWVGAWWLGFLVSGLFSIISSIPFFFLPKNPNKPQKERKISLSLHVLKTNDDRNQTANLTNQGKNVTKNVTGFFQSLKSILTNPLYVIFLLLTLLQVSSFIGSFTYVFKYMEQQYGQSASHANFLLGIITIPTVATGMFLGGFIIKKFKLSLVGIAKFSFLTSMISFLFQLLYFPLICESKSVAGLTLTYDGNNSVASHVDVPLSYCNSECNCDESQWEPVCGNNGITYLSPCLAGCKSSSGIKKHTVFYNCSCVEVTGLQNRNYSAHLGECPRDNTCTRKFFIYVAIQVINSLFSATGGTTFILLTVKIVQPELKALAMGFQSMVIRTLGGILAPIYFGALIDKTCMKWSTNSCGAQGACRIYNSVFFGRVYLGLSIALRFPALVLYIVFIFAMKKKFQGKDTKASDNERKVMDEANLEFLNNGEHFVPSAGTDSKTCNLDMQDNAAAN

[3] = target: T3, hOATP1B1 (Homo sapiens, UniProt Q9Y6L6); assay: Inhibition of EβG uptake in HEK293 cells overexpressing hOATP1B1; settings: inhibitor 10 μM, 15-min pre-incubation
T3 sequence (Q9Y6L6 1-691): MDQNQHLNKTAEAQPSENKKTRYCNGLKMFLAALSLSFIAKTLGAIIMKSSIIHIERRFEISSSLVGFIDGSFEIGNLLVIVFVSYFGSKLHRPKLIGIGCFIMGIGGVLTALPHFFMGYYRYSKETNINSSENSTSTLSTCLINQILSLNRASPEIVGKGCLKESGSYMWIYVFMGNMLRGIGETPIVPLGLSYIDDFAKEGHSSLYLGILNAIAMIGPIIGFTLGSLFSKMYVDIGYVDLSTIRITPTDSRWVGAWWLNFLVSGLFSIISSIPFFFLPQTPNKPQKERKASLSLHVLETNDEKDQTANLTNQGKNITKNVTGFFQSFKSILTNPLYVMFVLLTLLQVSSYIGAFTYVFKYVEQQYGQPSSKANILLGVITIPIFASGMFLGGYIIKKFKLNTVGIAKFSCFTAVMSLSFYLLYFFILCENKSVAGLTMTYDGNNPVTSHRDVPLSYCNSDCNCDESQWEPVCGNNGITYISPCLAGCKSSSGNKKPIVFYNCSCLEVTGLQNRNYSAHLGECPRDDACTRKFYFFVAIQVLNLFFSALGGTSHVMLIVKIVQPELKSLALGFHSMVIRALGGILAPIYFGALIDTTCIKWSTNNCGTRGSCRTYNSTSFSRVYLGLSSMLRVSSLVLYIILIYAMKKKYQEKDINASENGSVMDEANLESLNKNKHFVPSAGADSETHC

[4] = target: T2, hOATP1B3; assay: Inhibition of vincristine uptake in HEK293 cells overexpressing hOATP1B3; settings: inhibitor 15 min pre-treatment
[5] = system: OATP1B2; assay: Plasma level and DRG/plasma ratio of α-tocopherol in mice (biomarker of OATP1B2 function); assay type: in vivo, mouse
[6] = target: T3, hOATP1B1; assay: Inhibition of vincristine uptake in HEK293 cells overexpressing hOATP1B1; settings: inhibitor 15 min pre-treatment
[7] = target: T1, mOATP1B2; assay: Inhibition of vincristine uptake in HEK293 cells overexpressing mOATP1B2; assay type: cell-based
[8] = system: mice; settings: for Protection against treatment-related mechanical allodynia by OATP1B2 deficiency: mouse, in vivo
[9] = system: OATP1B-type transporters; settings: cited from earlier work
[10] = system: mice; settings: cited from earlier work
[11] = mOATP1B2, in presence of alpha-tocopherol

Structure (SMILES): CO[C@H]1/C=C/O[C@@]2(C)Oc3c(C)c(O)c4c(O)c(c(/C=N/N5CCN(C)CC5)c(O)c4c3C2=O)NC(=O)/C(C)=C\C=C\[C@H](C)[C@H](O)[C@@H](C)[C@@H](O)[C@@H](C)[C@H](OC(C)=O)[C@@H]1C [Rifampicin, rifampicin]
- EβG uptake (% of vehicle) ([1]; HEK293 mOATP1B2, inhibitor 10 μM, 15-min pre-incubation): 9.089 % of vehicle and 9.168 % of vehicle and 8.011 % of vehicle
- EβG uptake (% of vehicle) [2]: 4.339 % of vehicle and 4.237 % of vehicle and 4.051 % of vehicle
- EβG uptake (% of vehicle) [3]: 26.1825 % of vehicle and 31.1005 % of vehicle and 27.1566 % of vehicle
- Vincristine uptake (% of vehicle) [4]: 68.0365 % of vehicle and 67.1426 % of vehicle and 57.6334 % of vehicle and 46.0272 % of vehicle and 55.4053 % of vehicle and 65.8991 % of vehicle
- Level of α-tocopherol (% of wild-type baseline), DRG/Plasma Ratio ([5]; WT mice treated with the inhibitor, DRG/plasma ratio, listed as Rifampin): 27.9959% and 27.249% and 34.1971%
- Level of α-tocopherol (% of wild-type baseline), Plasma ([5]; WT mice treated with the inhibitor, plasma, listed as Rifampin): 236.636% and 352.754% and 217.386%
- Level of α-tocopherol (% of wild-type baseline), relative DRG/plasma ratio ([5]; WT mice, 2 hours after rifampin 20 mg/kg i.p.): 27.9959 % of wild-type baseline and 27.249 % of wild-type baseline and 34.1971 % of wild-type baseline
- Vincristine uptake (% of vehicle) [6]: 68.5513 % of vehicle and 91.3571 % of vehicle and 64.0921 % of vehicle
- Vincristine uptake (% of vehicle) ([7]; HEK293 mOATP1B2, inhibitor 15 min pre-treatment): 69.4167 % of vehicle and 71.9856 % of vehicle and 78.1737 % of vehicle and 74.3324 % of vehicle and 63.8503 % of vehicle and 67.3213 % of vehicle
- Protective effect against VIPN (mechanical allodynia) ([8]; rifampin pretreatment 20 mg/kg, single vincristine 1 mg/kg, wild-type mice): could be replicated with pretreatment of orally administered rifampin

- Vincristine uptake (% of vehicle) [7, 11]: 51.7599% and 63.6149% and 58.7604%
Structure (SMILES): Cc1c(C)c2c(c(C)c1O)CC[C@@](C)(CCC[C@H](C)CCC[C@H](C)CCCC(C)C)O2 [alpha-tocopherol]
- EβG uptake (% of vehicle) [1, 11]: 113.612% and 99.0126% and 119.375% and 118.704% and 95.6597% and 100.791%

Structure (SMILES): CC(=O)O[C@H]1C(=O)[C@@]2(C)[C@H]([C@H](OC(=O)c3ccccc3)[C@]3(O)C[C@H](OC(=O)[C@H](O)[C@@H](NC(=O)c4ccccc4)c4ccccc4)C(C)=C1C3(C)C)[C@]1(OC(C)=O)CO[C@@H]1C[C@@H]2O [Paclitaxel, paclitaxel]
- Protection against treatment-related mechanical allodynia by OATP1B2 deficiency [8]: protection against treatment-related mechanical allodynia was only observed

- Protection against treatment-related mechanical allodynia by OATP1B2 deficiency ([8]; DBA/1LacJ): independently of OATP1B2
Structure (SMILES): C=C1C[C@@H]2CC[C@@]34C[C@H]5O[C@H]6[C@@H](O3)[C@H]3O[C@H](CC[C@@H]3O[C@H]6[C@H]5O4)CC(=O)C[C@@H]3[C@@H](OC)[C@@H](C[C@H](O)CN)O[C@H]3C[C@H]3O[C@@H](CC[C@@H]1O2)C[C@@H](C)C3=C [Eribulin, eribulin]

- Protection against treatment-related mechanical allodynia by OATP1B2 deficiency ([8]; DBA/1LacJ): independently of OATP1B2
Structure (SMILES): CCC1=C[C@@H]2CN(C1)Cc1c([nH]c3ccccc13)[C@@](C(=O)OC)(c1cc3c(cc1OC)N(C)[C@H]1[C@@](O)(C(=O)OC)[C@H](OC(C)=O)[C@]4(CC)C=CCN5CC[C@]31[C@@H]54)C2 [Vinorelbine, vinorelbine]

- Protection against treatment-related mechanical allodynia by OATP1B2 deficiency ([8]; DBA/1LacJ): independently of OATP1B2
Structure (SMILES): CC(=O)O[C@@]12CO[C@@H]1C[C@H](O)[C@@]1(C)C(=O)[C@H](O)C3=C(C)[C@@H](OC(=O)[C@H](O)[C@@H](NC(=O)OC(C)(C)C)c4ccccc4)C[C@@](O)([C@@H](OC(=O)c4ccccc4)[C@H]21)C3(C)C [Docetaxel, docetaxel]

- Protection against treatment-related mechanical allodynia by OATP1B2 deficiency ([8]; DBA/1LacJ): independently of OATP1B2
Structure (SMILES): C/C(=C\c1csc(C)n1)[C@@H]1C[C@@H]2O[C@]2(C)CCC[C@H](C)[C@H](O)[C@@H](C)C(=O)C(C)(C)[C@@H](O)CC(=O)N1 [Ixabepilone, ixabepilone]

Structure (SMILES): OCCN(CCO)c1nc(N2CCCCC2)c2nc(N(CCO)CCO)nc(N3CCCCC3)c2n1 [Dipyridamole, dipyridamole]
- Inhibitory potency against OATP1B-type transporters [9]: moderate inhibitory potency
- Protection against VIPN [10]: partially protected against VIPN in mice
